Series [1] has as its system AR nuclear translocation in AILNCaP14 cell line. Briefly: AR nuclear translocation suppression test using immunofluorescent staining. It counts as cell-based. The following applies: 0.25 μM, 4 days, vs DMSO control. How it is done: 1×10^5 cells of the […]14 cell line were seeded on a 48-well plate to which 0.5 mL/well of medium was dispensed. After 3 days of culture under the conditions of 5% CO2 at 37° C., a DMSO solution of alvocidib was diluted with a medium so that the final concentration of alvocidib would be 0.25 μM and added to each well (final volume of 1.0 mL). As a control, alvocidib-free DMSO was similarly diluted and added. After culturing for 4 days, the cells were gently washed once with PBS, and immobilized by allowing 4% paraformaldehyde phosphate buffer to act on the cells for 15 minutes. After washing the cells gently twice with PBS, the cells were incubated for 15 minutes in a 4% PBST solution. The cells were further incubated for 15 minutes in a blocking reagent (DS Pharma Biomedical, Cat no. UK-B80), and the cells were then incubated overnight at 4° C. after adding an anti-AR antibody (Santa Cruz Biotechnology Inc., Cat no. sc-816). After washing the cells gently twice with PBS, the cells were incubated for 45 minutes at room temperature after adding a secondary antibody for immunofluorescent staining (Thermo Fisher Scientific, Cat no A-21206). After washing the cells gently twice with PBS, the cells were incubated for 10 minutes after adding DAPI (Nacalai tesque, Cat no. 11034-56). After washing the cells twice for 10 minutes with 1% PBS, signals were measured with a fluorescence microscope.

A short description of series [2]: Body weight in the xenograft mouse test. The following applies: NOD-SCID mice; 3 mg/kg intraperitoneally, three times every two days. It counts as in vivo. The protocol:
2×10^6 […]14 cells were subjected to suspension culture for 4 days using a PrimeSurface® petri dish 90 mm (product code: MS-9090X) in a phenol red free RPMI 1640 medium containing activated carbon-treated 10% fetal bovine serum (csFBS). The cultured cells that were collected, mixed with 350 uL of Matrigel (Corning® Matrigel® Basement Membrane Matrix; catalog number: 356237), and then divided into 3 equal portions were transplanted subcutaneously into three sites on NOD-SCID mice (male, 8 mice, 6 to 8 weeks old) 7 days after castration. After the subcutaneous transplantation, the mice were continuously raised, and an aqueous saline solution of alvocidib hydrochloride (3 mg/kg) was administered intraperitoneally to the mice for a total of three times at an interval of once every two days from the point (day 0) where the volume of tumor formed subcutaneously reached 25 mm^3 or greater and 100 mm^3 or less at one or two of the tumor transplantation sites.

The subject of series [3] is AILNCaP14 cell derived subcutaneous xenograft. Briefly: Tumor proliferation suppression test using a subcutaneous xenograft mouse model. The class given is in vivo. The following applies: castrated NOD-SCID mice; 3 mg/kg intraperitoneally, three times every two days; vs saline negative control; p value=0.0497.
Protocol: 2×10^6 […] 14 cells were subjected to suspension culture for 4 days using a PrimeSurface® petri dish 90 mm (product code: MS-9090X) in a phenol red free RPMI 1640 medium containing activated carbon-treated 10% fetal bovine serum (csFBS). The cultured cells that were collected, mixed with 350 uL of Matrigel (Corning® Matrigel® Basement Membrane Matrix; catalog number: 356237), and then divided into 3 equal portions were transplanted subcutaneously into three sites on NOD-SCID mice (male, 8 mice, 6 to 8 weeks old) 7 days after castration. […] The tumor volume after three days (day 7) from the third administration was measured, and the ratio of increase in tumor volume was computed in accordance with the following equation. Ratio of increase in tumor volume=tumor volume on day 7/tumor volume on day 0 As a negative control group, the same test was conducted using saline in place of an agent administered solution, and the ratio of increase in tumor volume was computed.
The subject of the next series is AILNCaP14 cell line. The series can be described thus: Cell proliferation suppression test (crystal violet staining). It counts as cell-based. How it is done: (§1) 5×10^3 cells of the LNCaP cell line, 4×10^4 cells of the AILNCaP14 cell line, and 6×10^4 cells of the AILNCaP15 cell line were each seeded on a 24-well plate to which 1 mL/well of medium was dispensed. […] After culturing each cell line for an additional two weeks, the status of cell proliferation was measured by cell staining (Bommi-Reddy et al. Proc Natl Acad Sci USA. 105: 16484-16489 (2008)) using crystal violet.
(§2) The final concentrations of alvocidib were set to be 0.125, 0.25, 0.5, and 1.0 uM.

Another series deals with AILNCaP15 cell line. Described as above. The class given is cell-based. How it is done: as §1, §2
For series [4], the system named is androgen receptor (AR) phosphorylation in AILNCaP14 cell line. The series can be described thus: AR phosphorylation suppression test by immunoblotting. The class given is cell-based. The settings on record: 0.25 uM, 1 to 4 days. A general note: Immunoblotting shows a protein as a band on a membrane.
Protocol: (§3) After the culturing, each of 1×10^6 cells were washed with ice cooled PBS, and then treated with cell lysis buffer containing 8 M of urea, 20 mM of Tris hydrochloride (pH 7.4), 1 mM of EDTA, and protease inhibitor (Nacalai tesque, Cat no. 03969) and phosphatase inhibitor (Nacalai tesque, Cat no. 07575-51)—added 1.0% Triton X. The cell lysate was then subjected to high speed centrifugation (21,500 G) for 20 minutes at 4° C. The total amount of cell protein was quantified using a protein quantification reagent (Thermo Fisher Scientific, Cat no. 23227).
As a positive control, JQ1 (Cayman Chemical) was used.
In series [5] the test system is androgen receptor (AR) phosphorylation in AILNCaP15 cell line. The series is described as above. The class given is cell-based. The settings on record: 0.25 uM, 1 to 4 days.
Protocol: as §3
For another series, the system named is LNCaP cell line. Briefly: Cell proliferation suppression test (crystal violet staining). It counts as cell-based. The settings on record: final concentration of 0.625 uM or greater, two weeks culture. The protocol:
as §1

Setting [6] is: 336 h, two weeks culture, crystal violet.
The mark [7] stands for this setting: final concentration of 0.25 uM or greater.
Setting [8] is: final concentration of 5 uM, compared to LNCaP cell line.

With `CN1CC[C@H](c2c(O)cc(O)c3c(=O)cc(-c4ccccc4Cl)oc23)[C@H](O)C1` [alvocidib, 2-(2-chlorophenyl)-5,7-dihydroxy-8-[(3S,4R)-3-hydroxy-1-methylpiperidin-4-yl]-4H-1-benzopyran-4-one], in series [1], the AR nuclear translocation result is reported as “suppressed”. The “decrease in the body weight of mice” value in series [2] was “not observed”. In addition, the “ratio of increase in tumor volume (day 7/day 0)” value in series [3] is “decreased”. Moreover, the IC50 in the series on AILNCaP14 cell line (setting [6]) and in the series on AILNCaP15 cell line (setting [6]) was 125 to 250 nM in each case. Besides, the “effect of suppressing cell proliferation” value in the series with AILNCaP14 cell line (setting [7]) and in the series with AILNCaP15 cell line (setting [7]) was “very potent effect of suppressing cell proliferation” throughout. Further, the “phosphorylation of serine 81 of AR” value in series [4] and in series [5] was “suppressed over time” each time. Further, the “phosphorylation of serine 210 or serine 213 of AR” value in series [4] and in series [5] was “suppressed over time” each time.
Take `CNC(=O)c1ccc(N2C(=S)N(c3ccc(C#N)c(C(F)(F)F)c3)C(=O)C2(C)C)cc1F` [enzalutamide]: the “suppression of cell proliferation” value was “significant weaker suppression of cell proliferation” in the series on AILNCaP14 cell line (setting [8]), “significant weaker suppression of cell proliferation” in the series on AILNCaP15 cell line (setting [8]) and “clear suppression of cell proliferation” with LNCaP cell line.

The term IC50 denotes the concentration at which inhibition is half-maximal. A low value points to greater potency.

For the origin of these results see patent US20220071978A1, “CANCER TREATMENT PHARMACEUTICAL COMPOSITION CONTAINING CDK INHIBITOR” (SUMITOMO DAINIPPON PHARMA CO., LTD., priority 2018, published 2022).
